The record followed here is US20230002357A1, “7-PYRIMIDINE-2-YL-OXY-INDAZOLE DERIVATIVES AND THEIR USE AS HERBICIDES” (SYNGENTA CROP PROTECTION AG, priority 2019, published 2023).

Holding throughout (format): in vivo
Common to all, as to details: 250 g/ha, evaluated after 13 days

Assay [1] has as its system Amaranthus retoflexus (AMARE). Nature of the assay: Post-emergence Test, glasshouse, AMARE. The procedure: (§1) Seeds of a variety of test species are sown in standard soil in pots Amaranthus retoflexus (AMARE), Echinochloa crus-galli (ECHCG), Setaria faberi (SETFA)). After cultivation for one day (pre-emergence) or after 8 days cultivation (post-emergence) under controlled conditions in a glasshouse (at 24/16° C., day/night; 14 hours light; 65% humidity), the plants are sprayed with an aqueous spray solution derived from the formulation of the technical active ingredient in acetone/water (50:50) solution containing 0.5% Tween™ 20 (polyoxyethelyene sorbitan monolaurate, CAS RN 9005-64-5). Compounds are applied at 250 g/ha unless otherwise stated. The test plants are then grown in a glasshouse under controlled conditions in a glasshouse (at 24/16° C., day/night; 14 hours light; 65% humidity) and watered twice daily. After 13 days for pre- and post-emergence, the test is evaluated for the percentage damage caused to the plant. The biological activities are shown in the following table on a five-point scale (5=81-100%; 4=61-80%; 3=41-60%; 2=21-40%; 1=0-20%).

The test system of assay [2] is ABUTH. The experiment in a line: Post-emergence Test, glasshouse, ABUTH. The procedure:
as §1

In assay [3] the test system is Setaria faberi (SETFA). Nature of the assay: Post-emergence Test, glasshouse, SETFA. On the procedure:
as §1

In assay [4] the test system is Echinochloa crus-galli (ECHCG). Nature of the assay: Post-emergence Test, glasshouse, ECHCG. On the procedure:
as §1

Assay [5] concerns IPOHE. Nature of the assay: Post-emergence Test, glasshouse, IPOHE. On the procedure: as §1
Assay [6] concerns Amaranthus retoflexus (AMARE). The experiment in a line: Pre-emergence Test, glasshouse, AMARE. On the procedure: as §1
The test system of assay [7] is ABUTH. Nature of the assay: Pre-emergence Test, glasshouse, ABUTH. On the procedure: as §1
The subject of assay [8] is Setaria faberi (SETFA). The experiment in a line: Pre-emergence Test, glasshouse, SETFA. The procedure:
as §1

Assay [9] has as its system Echinochloa crus-galli (ECHCG). The experiment in a line: Pre-emergence Test, glasshouse, ECHCG. On the procedure: as §1
The subject of assay [10] is IPOHE. Nature of the assay: Pre-emergence Test, glasshouse, IPOHE. On the procedure: as §1

Each structure is given as a SMILES string.

For `FC(F)(F)CCCn1ncc2cccc(Oc3ncc(Cl)cn3)c21` [Compound 1.001, 7-(5-chloropyrimidin-2-yl)oxy-1-(4,4,4-trifluorobutyl)indazole], the figures for the “percentage damage caused to the plant, five-point scale, AMARE” value (“percentage damage caused … AMARE” for short) in assay [1] and in assay [6] were 2 (2=21-40%) and 4 (4=61-80%), respectively. For the same compound, the “percentage damage caused to the plant, five-point scale, ABUTH” value (“percentage damage caused … ABUTH” below) in the assay on ABUTH [2] and in the assay on ABUTH [7] was 4 (4=61-80%) in each case. For the same compound, the “percentage damage caused to the plant, five-point scale, SETFA” value (shortened to “percentage damage caused … SETFA”) with Setaria faberi (SETFA) [3] is given as 4 (4=61-80%); in the assay with Setaria faberi (SETFA) [8], 5 (5=81-100%). Moreover, the “percentage damage caused to the plant, five-point scale, ECHCG” value (“percentage damage caused … ECHCG” for short) is reported as 3 (3=41-60%) in [4] and 5 (5=81-100%) in [9]. Also, the “percentage damage caused to the plant, five-point scale, IPOHE” value (“percentage damage caused … IPOHE” below) with IPOHE [5] and in the assay with IPOHE [10] was 1 (1=0-20%) in each case.
With `Fc1cc(Cl)cnc1Oc1cccc2cnn(CCCC(F)(F)F)c12` [Compound 1.002], the “percentage damage caused … AMARE” value is listed as 2 (2=21-40%) in [1] and 1 (1=0-20%) in assay [6]. Moreover, the “percentage damage caused … ABUTH” value with ABUTH [2] is recorded as 2 (2=21-40%); with ABUTH [7], 1 (1=0-20%). For the same compound, the “percentage damage caused … SETFA” value in the assay on Setaria faberi (SETFA) [3] was 3 (3=41-60%); with Setaria faberi (SETFA) [8] it was 2 (2=21-40%). Besides, the results for the “percentage damage caused … ECHCG” value in assay [4] and in assay [9] were 3 (3=41-60%) and 2 (2=21-40%), respectively. In addition, the “percentage damage caused … IPOHE” value in the assay on IPOHE [5] and in the assay on IPOHE [10] was 1 (1=0-20%) in each case.
Consider `FC(F)(F)CCCn1ccc2cccc(Oc3ncc(Cl)cn3)c21` [Compound 1.003], for which the results for the “percentage damage caused … AMARE” value in assay [1] and in [6] were 3 (3=41-60%) and 1 (1=0-20%), respectively. For the same compound, the “percentage damage caused … ABUTH” value with ABUTH [2] is reported as 2 (2=21-40%); in the assay on ABUTH [7], 1 (1=0-20%). Also, the “percentage damage caused … SETFA” value with Setaria faberi (SETFA) [3] and with Setaria faberi (SETFA) [8] was 1 (1=0-20%) each time. The “percentage damage caused … ECHCG” value in assay [4] and in assay [9] was 1 (1=0-20%) in each case. Besides, the “percentage damage caused … IPOHE” value with IPOHE [5] is listed as 2 (2=21-40%); with IPOHE [10], 1 (1=0-20%).
In the case of `Fc1cc(Cl)cnc1Oc1cccc2ccn(CCCC(F)(F)F)c12` [Compound 1.004], the entries for the “percentage damage caused … AMARE” value in assay [1] and in assay [6] were 3 (3=41-60%) and 1 (1=0-20%), respectively. The “percentage damage caused … ABUTH” value in the assay with ABUTH [2] and in the assay on ABUTH [7] was 1 (1=0-20%) in each case. In addition, the “percentage damage caused … SETFA” value is 1 (1=0-20%) in the assay on Setaria faberi (SETFA) [3] and 2 (2=21-40%) with Setaria faberi (SETFA) [8]. Also, the “percentage damage caused … ECHCG” value in assay [4] and in assay [9] was 1 (1=0-20%) throughout. The “percentage damage caused … IPOHE” value in the assay with IPOHE [5] is recorded as 2 (2=21-40%); with IPOHE [10] it was 1 (1=0-20%).
Consider `FC(F)(F)CCCn1nc(Cl)c2cccc(Oc3ncc(Cl)cn3)c21` [Compound 1.005, 3-chloro-7-(5-chloropyrimidin-2-yl)oxy-1-(4,4,4-trifluorobutyl)indazole], for which the “percentage damage caused … AMARE” value in assay [1] and in assay [6] was 5 (5=81-100%) throughout. Moreover, the entries for the “percentage damage caused … ABUTH” value in the assay with ABUTH [2] and in the assay with ABUTH [7] were 5 (5=81-100%) and 3 (3=41-60%), respectively. Also, the “percentage damage caused … SETFA” value in the assay on Setaria faberi (SETFA) [3] and in the assay on Setaria faberi (SETFA) [8] was 5 (5=81-100%) throughout. The “percentage damage caused … ECHCG” value in assay [4] and in [9] was 5 (5=81-100%) throughout. Moreover, the “percentage damage caused … IPOHE” value is given as 3 (3=41-60%) with IPOHE [5] and 1 (1=0-20%) with IPOHE [10].
Turning to `FC(F)(F)CCCn1nc(Br)c2cccc(Oc3ncc(Cl)cn3)c21` [Compound 1.006, 3-bromo-7-(5-chloropyrimidin-2-yl)oxy-1-(4,4,4-trifluorobutyl)indazole], the “percentage damage caused … AMARE” value in [1] and in assay [6] was 5 (5=81-100%) in each case. The “percentage damage caused … ABUTH” value with ABUTH [2] is on record as 5 (5=81-100%); with ABUTH [7], 2 (2=21-40%). The “percentage damage caused … SETFA” value with Setaria faberi (SETFA) [3] is listed as 4 (4=61-80%); in the assay with Setaria faberi (SETFA) [8], 5 (5=81-100%). Further, the “percentage damage caused … ECHCG” value in assay [4] and in assay [9] was 5 (5=81-100%) each time. In addition, the “percentage damage caused … IPOHE” value is 2 (2=21-40%) in the assay with IPOHE [5] and 1 (1=0-20%) with IPOHE [10].
On to `N#Cc1nn(CCCC(F)(F)F)c2c(Oc3ncc(Cl)cn3)cccc12` [Compound 1.007, 7-(5-chloropyrimidin-2-yl)oxy-1-(4,4,4-trifluorobutyl)indazole-3-carbonitrile], for which the “percentage damage caused … AMARE” value in assay [1] and in assay [6] was 5 (5=81-100%) throughout. The “percentage damage caused … ABUTH” value in the assay on ABUTH [2] is 5 (5=81-100%); in the assay with ABUTH [7] it was 3 (3=41-60%). Further, the “percentage damage caused … SETFA” value in the assay with Setaria faberi (SETFA) [3] and in the assay on Setaria faberi (SETFA) [8] was 5 (5=81-100%) in each case. Moreover, the “percentage damage caused … ECHCG” value in assay [4] and in [9] was 5 (5=81-100%) each time. For the same compound, the results for the “percentage damage caused … IPOHE” value in the assay on IPOHE [5] and in the assay with IPOHE [10] were 4 (4=61-80%) and 2 (2=21-40%), respectively.
As for `N#Cc1cc(Cl)cnc1Oc1cccc2c(Cl)nn(CCCC(F)(F)F)c12` [Compound 1.008], the “percentage damage caused … AMARE” value in assay [1] is 5 (5=81-100%); in assay [6], 4 (4=61-80%). In addition, the “percentage damage caused … ABUTH” value is 4 (4=61-80%) in the assay on ABUTH [2] and 2 (2=21-40%) in the assay with ABUTH [7]. The “percentage damage caused … SETFA” value with Setaria faberi (SETFA) [3] and in the assay with Setaria faberi (SETFA) [8] was 4 (4=61-80%) in each case. The “percentage damage caused … ECHCG” value in [4] and in assay [9] was 4 (4=61-80%) throughout. The results for the “percentage damage caused … IPOHE” value with IPOHE [5] and with IPOHE [10] were 2 (2=21-40%) and 1 (1=0-20%), respectively.
`FC(F)(F)CCCn1nc(Cl)c2cc(Br)cc(Oc3ncc(Cl)cn3)c21` [Compound 1.010, 5-bromo-3-chloro-7-(5-chloropyrimidin-2-yl)oxy-1-(4,4,4-trifluorobutyl)indazole]: the “percentage damage caused … AMARE” value in [1] and in assay [6] was 4 (4=61-80%) throughout. Moreover, the “percentage damage caused … ABUTH” value in the assay with ABUTH [2] and in the assay with ABUTH [7] was 1 (1=0-20%) in each case. For the same compound, the “percentage damage caused … SETFA” value in the assay with Setaria faberi (SETFA) [3] and in the assay with Setaria faberi (SETFA) [8] was 2 (2=21-40%) throughout. Moreover, the “percentage damage caused … ECHCG” value in [4] and in assay [9] was 2 (2=21-40%) throughout. The “percentage damage caused … IPOHE” value in the assay with IPOHE [5] and in the assay on IPOHE [10] was 1 (1=0-20%) in each case.
For `Fc1cc(Cl)cnc1Oc1cccc2c(Cl)nn(CCCC(F)(F)F)c12` [Compound 1.032], the figures for the “percentage damage caused … AMARE” value in assay [1] and in assay [6] were 5 (5=81-100%) and 3 (3=41-60%), respectively. Further, the “percentage damage caused … ABUTH” value in the assay on ABUTH [2] is given as 3 (3=41-60%); with ABUTH [7] it was 1 (1=0-20%). The “percentage damage caused … ECHCG” value in [4] and in [9] was 3 (3=41-60%) throughout. Further, the “percentage damage caused … IPOHE” value in the assay on IPOHE [5] is reported as 3 (3=41-60%); in the assay on IPOHE [10], 1 (1=0-20%). In addition, in the assay with Setaria faberi (SETFA) [8], the “percentage damage caused … SETFA” value is reported as 4 (4=61-80%).
